Results on two molecules are retold here after US11584801B2, “Anti-5T4 antibodies and antibody-drug conjugates” (Byondis B.V., priority 2015, dated 2023).

In one data set the test system is MDA-MB-468 cells. Put plainly: In vitro cytotoxicity in MDA-MB-468 cells. The format is cell-based, human.
A further data set relates to PA-1 cells. The data set is described as follows: In vitro cytotoxicity in PA-1 cells. The data set is classed as cell-based, human.
Data set [1] can be described thus: Hydrophobicity by analytical HIC. The format is physicochemical. The procedure:
For analytical HIC, 5-10 μl of sample (1 mg/ml) was injected onto a TSKgel Butyl-NPR column (4.6 mm ID×3.5 cm L, Tosoh Bioscience, cat. nr. 14947). The elution method consisted of a linear gradient from 100% Buffer A (25 mM sodium phosphate, 1.5 M ammonium sulphate, pH 6.95) to 100% of Buffer B (25 mM sodium phosphate, pH 6.95, 20% isopropanol) at 0.4 ml/min over 20 minutes. A Waters Acquity H-Class UPLC system equipped with PDA-detector and Empower software was used. Absorbance was measured at 214 nm and the retention time of ADCs was determined.

Regarding “Rituximab-vc-seco-DUBA: non-binding control ADC”, in the data set with MDA-MB-468 cells, inhibition was half-maximal at 32.9 nM (IC50) and the “MDA-MB-468 Efficacy” value came out at 91%. The same molecule registered an IC50 in the data set on PA-1 cells of 8.32 nM.

B1: 899 chimeric (conjugate)
VH: QSVEESGGRLVTPGTPLTLTCTVSGFSLSSYTMSWVRQACGKGLEYIGIISSSDGTWYANWVKGRFTISKTSTTVDLKMTSLTTEDTATYFCARDGTGNKYYTWDRLDLWGQGTLVTVSS
VL: NIVMTQTPSPVSGAVGGTVTINCQASQSIYNELSWYQQKPGQPPKLLIYYASTLASGVSSRFKGSGSGTQFTLTISGVESVDAATYYCQQGYSSSNVDNVFGGGTEVVVK
On to B1, for which, in data set [1] (analytical HIC retention time of DAR0 species), the RTDAR0 was 6.5. The molecule further gave an RTDAR2 in data set [1] (analytical HIC retention time of DAR2 species) of 10.3. Also, the “RTDAR2 − RTDAR0” value in data set [1] (increase in HIC retention time upon conjugation of two linker drugs) was 3.8.

What is called IC50 is the midpoint of a concentration-inhibition curve. Higher therefore signals lower potency.
